Patent US20020016981A1, “Methods for producing genetically modified plants, plant materials and plant products produced thereby” (priority 1998, published 2002)

Legend:
Format in all cases: cell-based
[1] = tested on: Eucalyptus nodal sections; test: Acetosyringone in the co-cultivation medium, GUS staining of explants (Example 8)
Experimental: The inclusion of a phenolic compound, acetosyringone, in the co-cultivation medium was tested. Eucalyptus nodal sections were infected with Agrobacterium containing the double 35S-GUS construct, as described in Example 5, and then allowed to co-cultivate on MS+0.4% glucose medium containing acetosyringone, as described in Example 5. Following co-cultivation, explants were placed onto bud induction/selection medium for subsequent growth. Explants were stained for GUS activity as in Example 5 at 4-5 weeks post-infection.

[2] = tested on: stem segments from in vitro micropropagated shoot cultures of E. grandis x nitens clone 910.59; test: Adventitious bud induction from stem segments of different age at different BA concentrations (Example 1); details: NAA 0.01 mg/l, after 5 weeks in culture
Excerpt: (§1) The following examples are offered by way of illustration and not by way of limitation. Examples 1 to 3 describe experiments involving optimization of the regeneration and transformation protocols for Eucalyptus transformation. All refer to adventitious bud induction from stem segments obtained from in vitro micropropagated shoot cultures of E. grandis x nitens clone 910.59 (Fletcher Challenge Forests, Ltd., New Zealand). The tissue culture conditions in all examples, unless otherwise noted, were: temperature 20° C., 16 hour photoperiod, and cool white fluorescent lighting. These tissue culture conditions are generally preferred. All cultures were placed in 20×100 mm Petri dishes, 10 stem segments per dish.
This experiment was designed to determine the best age of stem segments for adventitious bud induction. The basal medium used was full-strength Murashige and Skoog (MS) medium (Sigma M5519) and sucrose 30 g/l. The age of stem segments (apical, 1st, 2nd, 3rd and 4th nodes) were tested in combination with the concentrations of Benzylaminopurine (BA-1, 2 and 3 mg/l). All media contained Naphthalene acetic acid (NAA) at 0.01 mg/l.
In vitro shoots of 3-4 cm were cut into single node segments. The leaves were removed prior to culture. Approximately twenty explants were cultured for each treatment. Cultures were transferred to fresh media every 3 weeks. Adventitious bud development assessments were done after 5 weeks in culture. The percentages of explants forming adventitious shoots for each treatment are listed below.

[3] = tested on: stem segments from in vitro micropropagated shoot cultures of E. grandis x nitens clone 910.59; test: Kanamycin inhibition of adventitious bud formation on stem segments (Example 2); details: after 5 weeks in culture
Excerpt: as §1
This experiment was designed to determine the optimal concentration of kanamycin to be used for selection of transformed bud tissues. Explants were cultured as described at the end of Example 1, in combination with kanamycin levels of 0, 5, 10, 25, 50 or 100 mg/l. In vitro shoots of 3-4 cm in size were cut into single node segments, and the appropriate segments used. All leaves were removed prior to culture. Approximately thirty explants were used for each treatment. Cultures were transferred to fresh medium after 3 weeks in culture, and the percentage of bud inhibition determined after 5 weeks in culture.

SMILES: COc1cc(C(C)=O)cc(OC)c1O [Acetosyringone, acetosyringone]
- % of Total GUS-Positive Explants in Buds ([1]; 5 μM acetosyringone in MS+0.4% glucose co-cultivation medium, GUS staining 4-5 weeks post-infection): 8%
- effect on transformation efficiency ([1]; 5 μM acetosyringone in the co-cultivation medium): enhances transformation efficiency

SMILES: c1ccc(CNc2ncnc3[nH]cnc23)cc1 [BA, Benzylaminopurine]
- percentages of explants forming adventitious shoots ([2]; Apical Shoot Tips, BA 1 mg/l): 25% (5/20)
- percentages of explants forming adventitious shoots ([2]; Apical Shoot Tips, BA 2 mg/l): 5% (1/20)
- percentages of explants forming adventitious shoots ([2]; Apical Shoot Tips, BA 3 mg/l): 33% (7/20)
- percentages of explants forming adventitious shoots ([2]; First Node, BA 1 mg/l): 57% (12/21)
- percentages of explants forming adventitious shoots ([2]; First Node, BA 2 mg/l): 35% (7/20)
- percentages of explants forming adventitious shoots ([2]; First Node, BA 3 mg/l): 20% (4/20)
- percentages of explants forming adventitious shoots ([2]; Fourth Node, BA 1 mg/l): 45% (9/20)
- percentages of explants forming adventitious shoots ([2]; Fourth Node, BA 2 mg/l): 38% (8/21)
- percentages of explants forming adventitious shoots ([2]; Fourth Node, BA 3 mg/l): 10% (2/20)
- percentages of explants forming adventitious shoots ([2]; Second Node, BA 1 mg/l): 76% (16/21)
- percentages of explants forming adventitious shoots ([2]; Second Node, BA 2 mg/l): 12% (6/20)
- percentages of explants forming adventitious shoots ([2]; Second Node, BA 3 mg/l): 20% (4/20)
- percentages of explants forming adventitious shoots ([2]; Third Node, BA 1 mg/l): 75% (15/20)
- percentages of explants forming adventitious shoots ([2]; Third Node, BA 2 mg/l): 15% (3/20)
- percentages of explants forming adventitious shoots ([2]; Third Node, BA 3 mg/l): 15% (3/20)

SMILES: NC[C@H]1O[C@H](O[C@H]2[C@H](O)[C@@H](O[C@H]3O[C@H](CO)[C@@H](O)[C@H](N)[C@H]3O)[C@H](N)C[C@@H]2N)[C@H](O)[C@@H](O)[C@@H]1O [Kanamycin, kanamycin]
- inhibition at 5 µg/mL ([3]; 840 h, kanamycin 5 mg/l, read-out: % Bud Inhibition Relative To Control): 20%
- inhibition at 10 µg/mL ([3]; 840 h, kanamycin 10 mg/l, read-out: % Bud Inhibition Relative To Control): 41%
- inhibition at 25 µg/mL ([3]; 840 h, kanamycin 25 mg/l, read-out: % Bud Inhibition Relative To Control): 59%
- inhibition at 50 µg/mL ([3]; 840 h, kanamycin 50 mg/l, read-out: % Bud Inhibition Relative To Control): 81%
- inhibition at 100 µg/mL ([3]; 840 h, kanamycin 100 mg/l, read-out: % Bud Inhibition Relative To Control): 96%
- % of Stem Segments Forming Adventitious Buds ([3]; kanamycin 5 mg/l): 64% (18/28)
- % of Stem Segments Forming Adventitious Buds ([3]; kanamycin 10 mg/l): 47% (14/30)
- % of Stem Segments Forming Adventitious Buds ([3]; kanamycin 25 mg/l): 33% (10/30)
- % of Stem Segments Forming Adventitious Buds ([3]; kanamycin 50 mg/l): 15% (14/31)
- % of Stem Segments Forming Adventitious Buds ([3]; kanamycin 100 mg/l): 3% (1/30)
